Results published in ChEMBL document CHEMBL1201861, “Genomics of Drug Sensitity in Cancer screening data, Wellcome Trust Sanger Institute”.
pIC50: −log10 of the molar value.

Legend:
Experiment in all cases: cells
COLO-792 = type: functional, cell-based, Homo sapiens; settings: Homo sapiens, COLO-792
Description: SANGER: Inhibition of human COLO-792 cell growth in a cell viability assay.

KS-1 = type: functional, cell-based, Homo sapiens; settings: Homo sapiens, KS-1;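 also: growth inhibition of KS-1 cells, read out with a cell viability assay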
Description: SANGER: Inhibition of human KS-1 cell growth in a cell viability assay.

HOP-62 = type: functional, cell-based, Homo sapiens; settings: Homo sapiens, HOP-62;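 also: cell growth inhibition determined with a viability assay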
Description: SANGER: Inhibition of human HOP-62 cell growth in a cell viability assay.

SK-MEL3 = type: functional, cell-based, Homo sapiens, SK-MEL-3; settings: Homo sapiens, SK-MEL3;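 also: growth inhibition of human SK-MEL-3 cells, read out with a cell viability assay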
Description: SANGER: Inhibition of human SK-MEL-3 cell growth in a cell viability assay.

T-24 = type: functional, cell-based, Homo sapiens; settings: Homo sapiens, T-24;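 also: growth inhibition of T-24 cells, read out with a cell viability assay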
Description: SANGER: Inhibition of human T-24 cell growth in a cell viability assay.

DOHH-2 = type: functional, cell-based; settings: Homo sapiens;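 also: growth inhibition of human DOHH-2 cells, read out with a cell viability assay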
Description: SANGER: Inhibition of human DOHH-2 cell growth in a cell viability assay.

NCI-H1395 = type: functional, cell-based, Homo sapiens; settings: Homo sapiens, NCI-H1395;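 also: cell viability assay read-out quantifying reduced proliferation of human NCI-H1395 cells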
Description: SANGER: Inhibition of human NCI-H1395 cell growth in a cell viability assay.

BB49-HNC = type: functional, cell-based, Homo sapiens; settings: Homo sapiens, BB49-HNC;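 also: cell viability assay read-out, reported as inhibition of BB49-HNC cell growth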
Description: SANGER: Inhibition of human BB49-HNC cell growth in a cell viability assay.

HD-MY-Z = type: functional, cell-based, Homo sapiens; settings: Homo sapiens, HD-MY-Z;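 also: growth inhibition of HD-MY-Z cells, read out with a cell viability assay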
Description: SANGER: Inhibition of human HD-MY-Z cell growth in a cell viability assay.

PC-3 = type: functional, cell-based, Homo sapiens; settings: Homo sapiens, PC-3;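 also: cell viability assay measuring growth inhibition of PC-3 cells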
Description: SANGER: Inhibition of human PC-3 cell growth in a cell viability assay.

T47D = type: functional, cell-based, Homo sapiens; settings: Homo sapiens, T47D;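 also: growth inhibition of human T47D cells, measured with a cell viability assay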
Description: SANGER: Inhibition of human T47D cell growth in a cell viability assay.

KALS-1 = type: functional, cell-based, Homo sapiens; settings: Homo sapiens, KALS-1;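 also: growth inhibition of KALS-1 cells, determined with a cell viability assay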
Description: SANGER: Inhibition of human KALS-1 cell growth in a cell viability assay.

KYSE-510 = type: functional, cell-based, Homo sapiens; settings: Homo sapiens, KYSE-510;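 also: cell viability readout used to measure how strongly growth of the cell line is suppressed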
Description: SANGER: Inhibition of human KYSE-510 cell growth in a cell viability assay.

YKG-1 = type: functional, cell-based, Homo sapiens; settings: Homo sapiens, YKG-1;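 also: cell growth inhibition, read out with a viability assay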
Description: SANGER: Inhibition of human YKG-1 cell growth in a cell viability assay.

OE19 = type: functional, cell-based, Homo sapiens; settings: Homo sapiens, OE19;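 also: growth inhibition of OE19 cells, measured through a cell viability read-out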
Description: SANGER: Inhibition of human OE19 cell growth in a cell viability assay.

KINGS-1 = type: functional, cell-based, Homo sapiens; settings: Homo sapiens, KINGS-1;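 also: cell viability assay measuring suppression of KINGS-1 cell growth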
Description: SANGER: Inhibition of human KINGS-1 cell growth in a cell viability assay.

BEN = type: functional, cell-based, Homo sapiens; settings: Homo sapiens, BEN;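 also: growth inhibition of the BEN cell line, read out with a cell viability assay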
Description: SANGER: Inhibition of human BEN cell growth in a cell viability assay.

LS-411N = type: functional, cell-based, Homo sapiens; settings: Homo sapiens, LS-411N
Capan-2 = type: functional, cell-based, Homo sapiens; settings: Homo sapiens, Capan-2;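 also: Capan-2 cell growth inhibition, read out with a viability assay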
Description: SANGER: Inhibition of human Capan-2 cell growth in a cell viability assay.

HO-1-N-1 = type: functional, cell-based, Homo sapiens; settings: Homo sapiens, HO-1-N-1;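 also: growth inhibition of human HO-1-N-1 cells, read out with a cell viability assay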
Description: SANGER: Inhibition of human HO-1-N-1 cell growth in a cell viability assay.

MZ7-mel = type: functional, cell-based, Homo sapiens; settings: Homo sapiens, MZ7-mel;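 also: growth inhibition of human MZ7-mel cells, measured by a cell viability assay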
Description: SANGER: Inhibition of human MZ7-mel cell growth in a cell viability assay.

BFTC-909 = type: functional, cell-based, Homo sapiens; settings: Homo sapiens, BFTC-909
Description: SANGER: Inhibition of human BFTC-909 cell growth in a cell viability assay.

NCI-H1651 = type: functional, cell-based, Homo sapiens; settings: Homo sapiens, NCI-H1651;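 also: Read-out is a cell viability assay, with IC50 expressing inhibition of NCI-H1651 cell growth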
Description: SANGER: Inhibition of human NCI-H1651 cell growth in a cell viability assay.

A-427 = type: functional, cell-based, Homo sapiens; settings: Homo sapiens, A-427;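 also: growth inhibition of human A-427 cells, read out by a cell viability assay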
Description: SANGER: Inhibition of human A427 cell growth in a cell viability assay.

BPH-1 = type: functional, cell-based, Homo sapiens; settings: Homo sapiens, BPH-1;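 also: cell viability assay measuring growth inhibition of human BPH-1 cells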
Description: SANGER: Inhibition of human BPH-1 cell growth in a cell viability assay.

AU565 = type: functional, cell-based, Homo sapiens; settings: Homo sapiens, AU565;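 also: cell viability assay measuring growth inhibition of human AU565 cells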
Description: SANGER: Inhibition of human AU565 cell growth in a cell viability assay.

SW1088 = type: functional, cell-based, Homo sapiens; settings: Homo sapiens, SW1088;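 also: growth inhibition of human SW1088 cells, read out by a cell viability assay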
Description: SANGER: Inhibition of human SW1088 cell growth in a cell viability assay.

HCC 2998 = type: functional, cell-based, Homo sapiens; settings: Homo sapiens, HCC 2998;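 also: growth inhibition of human HCC2998 cells, measured with a cell viability read-out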
Description: SANGER: Inhibition of human HCC2998 cell growth in a cell viability assay.

CW-2 = type: functional, cell-based, Homo sapiens; settings: Homo sapiens, CW-2;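 also: growth inhibition of CW-2 cells, read out by a cell viability assay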
Description: SANGER: Inhibition of human CW-2 cell growth in a cell viability assay.

IGROV-1 = type: functional, cell-based, Homo sapiens; settings: Homo sapiens, IGROV-1;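 also: reduction of IGROV-1 cell growth, read out with a viability assay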
Description: SANGER: Inhibition of human IGROV-1 cell growth in a cell viability assay.

Detroit 562 = type: functional, cell-based, Homo sapiens; settings: Homo sapiens, Detroit 562;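 also: growth inhibition of human Detroit 562 cells, read out by a cell viability assay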
Description: SANGER: Inhibition of human Detroit562 cell growth in a cell viability assay.

NCI-H661 = type: functional, cell-based, Homo sapiens; settings: Homo sapiens, NCI-H661;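 also: cell viability assay read-out, IC50 being the concentration that inhibits growth of the cells by half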
Description: SANGER: Inhibition of human NCI-H661 cell growth in a cell viability assay.

CP50-MEL-B = type: functional, cell-based, Homo sapiens; settings: Homo sapiens, CP50-MEL-B;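 also: growth inhibition of the human cell line, measured with a cell viability read-out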
Description: SANGER: Inhibition of human CP50-MEL-B cell growth in a cell viability assay.

C8166 = type: functional, cell-based; settings: Homo sapiens;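 also: growth inhibition of human C8166 cells measured by a cell viability assay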
Description: SANGER: Inhibition of human C8166 cell growth in a cell viability assay.

LB2518-MEL = type: functional, cell-based, Homo sapiens; settings: Homo sapiens, LB2518-MEL;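 also: growth inhibition of human LB2518-MEL cells, measured with a cell viability assay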
Description: SANGER: Inhibition of human LB2518-MEL cell growth in a cell viability assay.

RCM-1 = type: functional, cell-based, Homo sapiens; settings: Homo sapiens, RCM-1;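 also: growth inhibition of the RCM-1 line, determined with a cell viability readout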
Description: SANGER: Inhibition of human RCM-1 cell growth in a cell viability assay.

NCI-H1623 = type: functional, cell-based, Homo sapiens; settings: Homo sapiens, NCI-H1623;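 also: cell viability assay used as the read-out for growth inhibition of NCI-H1623 cells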
Description: SANGER: Inhibition of human NCI-H1623 cell growth in a cell viability assay.

JAR = type: functional, cell-based, Homo sapiens; settings: Homo sapiens, JAR;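 also: growth inhibition of human JAR cells determined with a cell viability assay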
Description: SANGER: Inhibition of human JAR cell growth in a cell viability assay.

IST-SL1 = type: functional, cell-based, Homo sapiens; settings: Homo sapiens, IST-SL1;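 also: growth inhibition of human IST-SL1 cells, read out with a cell viability assay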
Description: SANGER: Inhibition of human IST-SL1 cell growth in a cell viability assay.

HCC1569 = type: functional, cell-based, Homo sapiens; settings: Homo sapiens, HCC1569;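 also: growth inhibition of human HCC1569 cells, read out with a cell viability assay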
Description: SANGER: Inhibition of human HCC1569 cell growth in a cell viability assay.

HT-1080 = type: functional, cell-based, Homo sapiens; settings: Homo sapiens, HT-1080
Description: SANGER: Inhibition of human HT-1080 cell growth in a cell viability assay.

Calu-6 = type: functional, cell-based, Homo sapiens; settings: Homo sapiens, Calu-6;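 also: growth of human Calu-6 cells, read out by a cell viability assay, IC50 marking inhibition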
Description: SANGER: Inhibition of human Calu-6 cell growth in a cell viability assay.

SK-NEP-1 = type: functional, cell-based; settings: Homo sapiens;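 also: growth inhibition of human SK-NEP-1 cells, read out by a cell viability assay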
Description: SANGER: Inhibition of human SK-NEP-1 cell growth in a cell viability assay.

LXF-289 cell line = type: functional, cell-based, Homo sapiens; settings: Homo sapiens, LXF-289
Description: SANGER: Inhibition of human LXF-289 cell growth in a cell viability assay.

MLMA = type: functional, cell-based, Homo sapiens; settings: Homo sapiens, MLMA;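 also: growth inhibition of MLMA cells (human), determined through a cell viability readout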
Description: SANGER: Inhibition of human MLMA cell growth in a cell viability assay.

NCI-H2126 = type: functional, cell-based, Homo sapiens; settings: Homo sapiens, NCI-H2126;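 also: growth inhibition of the cancer cell line, determined with a cell viability readout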
Description: SANGER: Inhibition of human NCI-H2126 cell growth in a cell viability assay.

Mo = type: functional, cell-based; settings: Homo sapiens
Description: SANGER: Inhibition of human Mo-T cell growth in a cell viability assay.

Ca-Ski = type: functional, cell-based; settings: Homo sapiens;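 also: cell viability assay measuring inhibition of Ca-Ski cell growth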
Description: SANGER: Inhibition of human Ca-Ski cell growth in a cell viability assay.

HCC2218 = type: functional, cell-based; settings: Homo sapiens;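 also: cell viability assay read-out, with IC50 given as the concentration that inhibits growth of the cell line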
Description: SANGER: Inhibition of human HCC2218 cell growth in a cell viability assay.

SNU-5 = type: functional, cell-based; settings: Homo sapiens;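 also: cell viability readout used to measure growth inhibition in human NCI-SNU-5 cells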
Description: SANGER: Inhibition of human NCI-SNU-5 cell growth in a cell viability assay.

O=c1cc(-c2cccc3c2Sc2ccccc2S3)oc(N2CCOCC2)c1 [KU-55933]
pIC50 (COLO-792): < 5.00
pIC50 (KS-1): < 5.00
pIC50 (HOP-62): < 5.00
pIC50 (SK-MEL3): 5.08
pIC50 (T-24): < 5.00
pIC50 (DOHH-2): < 5.00
pIC50 (NCI-H1395): < 5.00
pIC50 (BB49-HNC): < 5.00
pIC50 (HD-MY-Z): < 5.00
pIC50 (PC-3): < 5.00
pIC50 (T47D): < 5.00
pIC50 (KALS-1): < 5.00
pIC50 (KYSE-510): < 5.00
pIC50 (YKG-1): < 5.00
pIC50 (OE19): < 5.00
pIC50 (KINGS-1): < 5.00
pIC50 (BEN): < 5.00
pIC50 (LS-411N): < 5.00
pIC50 (Capan-2): < 5.00
pIC50 (HO-1-N-1): < 5.00
pIC50 (MZ7-mel): < 5.00
pIC50 (BFTC-909): < 5.00
pIC50 (NCI-H1651): < 5.00
pIC50 (A-427): < 5.00
pIC50 (BPH-1): < 5.00
pIC50 (AU565): < 5.00
pIC50 (SW1088): < 5.00
pIC50 (HCC 2998): < 5.00
pIC50 (CW-2): < 5.00
pIC50 (IGROV-1): < 5.00
pIC50 (Detroit 562): < 5.00
pIC50 (NCI-H661): < 5.00
pIC50 (CP50-MEL-B): < 5.00
pIC50 (C8166): < 5.00
pIC50 (LB2518-MEL): < 5.00
pIC50 (RCM-1): < 5.00
pIC50 (NCI-H1623): < 5.00
pIC50 (JAR): < 5.00
pIC50 (IST-SL1): < 5.00
pIC50 (HCC1569): < 5.00
pIC50 (HT-1080): < 5.00
pIC50 (Calu-6): < 5.00
pIC50 (SK-NEP-1): < 5.00
pIC50 (LXF-289 cell line): < 5.00
pIC50 (MLMA): < 5.00
pIC50 (NCI-H2126): < 5.00
pIC50 (Mo): < 5.00
pIC50 (Ca-Ski): < 5.00

CCOc1nc(NC(=O)Cc2cc(OC)ccc2OC)cc(N)c1C#N
pIC50 (COLO-792): < 5.00
pIC50 (KS-1): < 5.00
pIC50 (HOP-62): < 5.00
pIC50 (SK-MEL3): < 5.00
pIC50 (T-24): < 5.00
pIC50 (DOHH-2): < 5.00
pIC50 (NCI-H1395): < 5.00
pIC50 (BB49-HNC): < 5.00
pIC50 (HD-MY-Z): < 5.00
pIC50 (PC-3): < 5.00
pIC50 (T47D): < 5.00
pIC50 (KALS-1): < 5.00
pIC50 (KYSE-510): < 5.00
pIC50 (YKG-1): < 5.00
pIC50 (OE19): < 5.00
pIC50 (KINGS-1): < 5.00
pIC50 (BEN): < 5.00
pIC50 (LS-411N): < 5.00
pIC50 (Capan-2): < 5.00
pIC50 (HO-1-N-1): < 5.00
pIC50 (MZ7-mel): < 5.00
pIC50 (BFTC-909): < 5.00
pIC50 (NCI-H1651): < 5.00
pIC50 (A-427): < 5.00
pIC50 (HCC2218): < 5.00
pIC50 (BPH-1): < 5.00
pIC50 (AU565): < 5.00
pIC50 (SNU-5): < 5.00
pIC50 (SW1088): < 5.00
pIC50 (HCC 2998): < 5.00
pIC50 (CW-2): < 5.00
pIC50 (IGROV-1): < 5.00
pIC50 (Detroit 562): < 5.00
pIC50 (NCI-H661): < 5.00
pIC50 (CP50-MEL-B): < 5.00
pIC50 (C8166): < 5.00
pIC50 (LB2518-MEL): < 5.00
pIC50 (RCM-1): < 5.00
pIC50 (NCI-H1623): < 5.00
pIC50 (JAR): < 5.00
pIC50 (IST-SL1): < 5.00
pIC50 (HCC1569): < 5.00
pIC50 (HT-1080): < 5.00
pIC50 (Calu-6): < 5.00
pIC50 (SK-NEP-1): < 5.00
pIC50 (LXF-289 cell line): < 5.00
pIC50 (MLMA): < 5.00
pIC50 (NCI-H2126): < 5.00
pIC50 (Mo): < 5.00
pIC50 (Ca-Ski): < 5.00

COc1cc(F)c(F)c(Nc2ccc(I)cc2F)c1NS(=O)(=O)C1(CC(O)CO)CC1 (configuration not stated)
pIC50 (COLO-792): 6.12
pIC50 (KS-1): 5.90
pIC50 (SK-MEL3): 5.61
pIC50 (T-24): < 5.30
pIC50 (DOHH-2): < 5.30
pIC50 (NCI-H1395): < 5.30
pIC50 (BB49-HNC): < 5.30
pIC50 (HD-MY-Z): 6.05
pIC50 (PC-3): < 5.30
pIC50 (T47D): < 5.30
pIC50 (KALS-1): < 5.30
pIC50 (KYSE-510): < 5.30
pIC50 (YKG-1): 6.03
pIC50 (OE19): < 5.30
pIC50 (KINGS-1): 5.57
pIC50 (BEN): < 5.30
pIC50 (LS-411N): 6.39
pIC50 (Capan-2): < 5.30
pIC50 (HO-1-N-1): 6.23
pIC50 (MZ7-mel): 6.43
pIC50 (BFTC-909): < 5.30
pIC50 (NCI-H1651): < 5.30
pIC50 (A-427): 5.35
pIC50 (HCC2218): < 5.30
pIC50 (BPH-1): 6.87
pIC50 (AU565): < 5.30
pIC50 (SNU-5): 5.35
pIC50 (SW1088): < 5.30
pIC50 (HCC 2998): 7.06
pIC50 (CW-2): < 5.30
pIC50 (IGROV-1): 5.75
pIC50 (Detroit 562): < 5.30
pIC50 (NCI-H661): < 5.30
pIC50 (CP50-MEL-B): 7.67
pIC50 (C8166): < 5.30
pIC50 (LB2518-MEL): 7.11
pIC50 (RCM-1): 6.87
pIC50 (NCI-H1623): 5.75
pIC50 (JAR): < 5.30
pIC50 (IST-SL1): < 5.30
pIC50 (HCC1569): < 5.30
pIC50 (HT-1080): 6.27
pIC50 (Calu-6): < 5.30
pIC50 (SK-NEP-1): < 5.30
pIC50 (LXF-289 cell line): 5.45
pIC50 (MLMA): < 5.30
pIC50 (NCI-H2126): < 5.30
pIC50 (Mo): < 5.30
pIC50 (Ca-Ski): < 5.30
